Experimental data from publication PMC3570474, “Biochemical Characterization of Uracil Phosphoribosyltransferase from Mycobacterium tuberculosis” (PLoS ONE, 2013).
Several values for one entry are separate records, joined by “and”; a condition that tells them apart may be missing. Equal entries are not always repeated.

Tests used:
UPRT from T. gondii = test system: UPRT from T. gondii; design: method as in PMID 11773618; settings: also stabilizes the more active tetrameric form; cited from earlier work
S. solfataricus UPRT = test system: S. solfataricus UPRT; design: method as in PMID 15752360; settings: cited from earlier work
[1] = target: MtUPRT:PRPP binary complex (Mycobacterium tuberculosis, UniProt P9WFF3); test: Isothermal titration calorimetry of GTP binding to PRPP bound enzyme; settings: 10 mM GTP titrated; MtUPRT 139 µM incubated with 100 µM PRPP for 1 hour
Procedure: Furthermore, no binding of GTP either to the free enzyme or to the PRPP bound enzyme was detected by ITC (data not shown). The incubation of PRPP with MtUPRT prior to the titration of GTP was tested to determine whether the binding of PRPP to MtUPRT generates conformational changes on the enzyme that could enable GTP binding. However, no binding of GTP to MtUPRT:PRPP binary complex could be detected (data now shown).
ITC experiments were carried out using an iTC200 Microcalorimeter (MicroCal Inc). Ligands and enzyme were prepared in 100 mM Hepes pH 7.5 containing 10 mM MgCl2. For direct titrations the sample cell was filled with 139 µM of MtUPRT (200 µL) and titrated (39.7 µL) with different concentrations of either substrates or products: 200 µM of uracil, 500 µM of PRPP, 500 µM of UMP, and 350 µM of PPi. In addition, titration was performed with 10 mM of GTP and the sample cell was filled with either free MtUPRT (139 µM) or MtUPRT (139 µM) incubated with 100 µM PRPP for 1 hour before starting the measurements. Reverse titrations were also carried out where the sample cell was filled with either 90 µM of PRPP or 150 µM of UMP and titrated with 633 µM of UPRT.
A stirring speed of 500 rpm and a temperature of 25°C were employed for all ITC experiments. […] The experimental data were evaluated using the Origin 7 SR4 software (MicroCal).

MtUPRT [2] = target: T1, MtUPRT (Mycobacterium tuberculosis, UniProt P9WFF3); test: Evaluation of nucleotides as allosteric effectors; assay type: biochemical; settings: for activation or inhibition of MtUPRT: 500 µM nucleotide, 128 s
MtUPRT [3] = target: T1, MtUPRT; test: Steady-state kinetics of MtUPRT, continuous spectrophotometric assay (uracil to UMP, 280 nm); assay type: biochemical; settings: for k cat/K (true steady-state) / true steady-state K (K PRPP, K uracil): initial velocity pattern, varying PRPP at fixed-varying uracil; for true steady-state K (K PRPP, K uracil): sequential mechanism fit
MtUPRT [4] = target: T1, MtUPRT; test: biochemical; assay type: binding; settings: for Kd: K d; for ΔG / ΔH / ΔS: reverse titration, 25°C
E. coli UPRT = test system: E. coli UPRT; design: method as in PMID 8856065; settings: without affecting V max; cited from earlier work
G. intestinalis UPRT = test system: G. intestinalis UPRT; design: method as in PMID 7622327; settings: cited from earlier work
B. caldolyticus UPRT = test system: B. caldolyticus UPRT; design: method as in PMID 9268683; settings: hyperbolic saturation curve; cited from earlier work
MtUPRT [5] = target: T1, MtUPRT; test: Evaluation of pyrimidine bases as substrates, discontinuous assay (HPLC, LC-ESI-MS/MS); assay type: biochemical; settings: 0.1 mM base, 1 mM PRPP, 37°C 30 min, confirmed by LC-ESI-MS/MS
Procedure: Uracil, thymine and cytosine pyrimidine bases were evaluated as possible MtUPRT substrates. The bases were added to MtUPRT reaction mixtures and protein separated by ultrafiltration, and product formation analyzed by HPLC monitoring absorbance at 254, 260, and 280 nm. […] The MtUPRT enzyme activity measurements henceforth described were carried out using uracil as substrate and a continuous spectrophotometric assay.
Reaction mixtures containing 50 mM Tris pH 7.8, 10 mM MgCl2, 1 mM PRPP, and 0.1 mM of the pyrimidine base to be tested (uracil, cytosine, or thymine) were initiated by the addition of 54 nM of homogeneous MtUPRT. The reactions were incubated at 37°C for 30 min and then boiled for 3 min to stop the reaction. The mixtures were passed through a Centricon (10,000 Da molecular weight cut off) to remove the protein content prior to analysis. The nucleotide contents of the samples were analyzed using an HPLC Äkta Purifier system and a Sephasil peptide C18 5 µm ST 4.6/250 column. A 500 µL aliquot of each sample was loaded on the column and adsorbed material isocratically eluted with 5 mM potassium phosphate pH 4.0 containing 5% acetonitrile for 10 min at 1 mL min^−1flow rate. Nucleotides and bases were monitored at 254, 260, and 280 nm.
Another method used to analyze the nucleotide content was the LC-ESI-MS/MS. This experiment was employed to confirm results obtained in the analysis described above. The chromatography was carried out with an Eclipse plus C18 4.6/150 column (Agilent). The injected sample volume was 20 µL, which was eluted isocratically with 10 mM ammonium acetate containing 40% acetonitrile at 0.8 ml min^−1 flow rate. The LC detector was an ESI coupled to the 3200 Q-Trap (Applied Biosystems MDS SCIEX), employing the ESI-MS/MS parameters as described by others. During the chromatography run, precursor ion scan (Prec) and enhance product ion scan (EPI) were monitored. Prec monitored precursors of mass over charge ratio (m/z) of compounds containing a phosphate group (H2PO4 ^−, m/z 97) and EPI gave the fragmentation spectra of the nucleotides m/z.

AUC = target: the molecule itself; test: AUC
[6] = in the presence of 100 µM GTP, uracil variable substrate, PRPP 350 µM
[7] = uracil variable substrate, fixed-saturating PRPP 350 µM
[8] = PRPP variable substrate, fixed-saturating uracil 35 µM
[9] = in the presence of 100 µM GTP, PRPP variable substrate, uracil 35 µM

In the case of `Nc1nc2c(ncn2[C@@H]2O[C@H](COP(=O)(O)OP(=O)(O)OP(=O)(O)O)[C@@H](O)[C@H]2O)c(=O)[nH]1` [GTP, guanosine 5′-triphosphate], the “effect of GTP on activity” value (UPRT from T. gondii) is listed as “activated by GTP”, the “effect of GTP on k cat and K M for PRPP and uracil” value (S. solfataricus UPRT) is listed as “increase k cat and K M values” and the “binding to MtUPRT:PRPP binary complex” value [1] is listed as “no binding”. For the same molecule, the “activation or inhibition of MtUPRT” value (MtUPRT [2]; 350 µM PRPP, 35 µM uracil) was “not significantly activated or inhibited”, the “effect on kinetic parameters for MtUPRT” value (MtUPRT [3]; 100 µM GTP) was “not affected” and the “binding to free MtUPRT enzyme (heat changes)” value (MtUPRT [4]) was “no binding”. The “effect of GTP on kinetic parameters” value (E. coli UPRT) was “lowered the K M value for PRPP” and the “effect of GTP on activity” value (G. intestinalis UPRT) was “dramatic increase in the activity”.

In the case of `O=c1ccn([C@@H]2O[C@H](COP(=O)(O)O)[C@@H](O)[C@H]2O)c(=O)[nH]1` [UMP, uridine 5′-monophosphate], the “inhibition of MtUPRT” value (MtUPRT [2]; 100 µM UMP, 350 µM PRPP, 35 µM uracil) is reported as “enzyme inhibition was observed”, the Kd (MtUPRT [4]) is reported as 7 µM and 8 µM and 13 µM and 14 µM and the ΔG (MtUPRT [4]; Subunit 1) is reported as -7 ± 2 kcal/mol. It also gave a ΔH (MtUPRT [4]; Subunit 1) of -5.1 ± 0.4 kcal/mol, a ΔS (MtUPRT [4]; Subunit 1) of 5±1 cal mol^−1 deg^−1 and a ΔG (MtUPRT [4]; Subunit 2) of -7 ± 2 kcal/mol. It also gave a ΔH (MtUPRT [4]; Subunit 2) of 6 ± 3 kcal/mol, a ΔS (MtUPRT [4]; Subunit 2) of 45±16 cal mol^−1 deg^−1 and a ΔG (MtUPRT [4]; Subunit 3) of -7 ± 3 kcal/mol. The ΔH (MtUPRT [4]; Subunit 3) was -24 ± 11 kcal/mol, the ΔS (MtUPRT [4]; Subunit 3) was −56±21 cal mol^−1 deg^−1 and the ΔG (MtUPRT [4]; Subunit 4) was -7 ± 2 kcal/mol. It also gave a ΔH (MtUPRT [4]; Subunit 4) of 28 ± 18 kcal/mol and a ΔS (MtUPRT [4]; Subunit 4) of 117±43 cal mol^−1 deg^−1.

With `Nc1ncnc2c1ncn2[C@@H]1O[C@H](COP(=O)(O)OP(=O)(O)OP(=O)(O)O)[C@@H](O)[C@H]1O` [ATP, adenosine 5′-triphosphate] the “activation or inhibition of MtUPRT” value (MtUPRT [2]; 350 µM PRPP, 35 µM uracil) was “not significantly activated or inhibited”.

In the case of `O=c1cc[nH]c(=O)[nH]1` [uracil], the “K M for uracil” value (B. caldolyticus UPRT) is listed as 2 µM, the “K 0.5” value (MtUPRT [3]; [6]) is listed as 2.9 ± 0.1 µM and the “apparent V max” value (MtUPRT [3]; [6]) is listed as 1.54±0.02 U mg^−1. The apparent k cat (MtUPRT [3]; [6]) was 0.57 ± 0.01 s⁻¹, the “n (Hill coefficient)” value (MtUPRT [3]; [6]) was 2.2±0.1 and the “k cat/K (true steady-state)” value (MtUPRT [3]) was 2.2 (±0.3)×10^5 M^−1 s^−1. The “true steady-state K (K PRPP, K uracil)” value (MtUPRT [3]) was 2.6 ± 0.4 µM, the “apparent V max” value (MtUPRT [3]; [7]) was 1.73±0.03 U mg^−1 and the apparent k cat (MtUPRT [3]; [7]) was 0.64 ± 0.01 s⁻¹. For the same molecule, the “n (Hill coefficient)” value (MtUPRT [3]; [7]) was 1.9±0.1, the “K 0.5” value (MtUPRT [3]; uracil variable substrate, fixed-saturating PRPP 350 µM, Hill fit) was 3.6 ± 0.1 µM and the “binding to free MtUPRT enzyme (heat changes)” value (MtUPRT [4]) was “no significant heat changes”. The “substrate activity (product formation)” value (MtUPRT [5]) was “specific for uracil”.

For `O=P(O)(O)OP(=O)(O)O` [PPi, pyrophosphate], the “binding to free MtUPRT enzyme (heat changes)” value (MtUPRT [4]) was “no significant heat changes”.

For `O=P(O)(O)OC[C@H]1O[C@H](OP(=O)(O)OP(=O)(O)O)[C@H](O)[C@@H]1O` [PRPP, 5-phosphoribosyl-α-1-pyrophosphate], the “apparent V max” value (MtUPRT [3]; [8]) was 1.75±0.02 U mg^−1, the apparent k cat (MtUPRT [3]; [8]) was 0.65 ± 0.01 s⁻¹ and the “apparent K M” value (MtUPRT [3]; PRPP variable substrate, fixed-saturating uracil 35 µM, Michaelis-Menten fit) was 12.4 ± 0.6 µM. For the same molecule, the “apparent K M” value (MtUPRT [3]; [9]) was 17 ± 2 µM, the “apparent V max” value (MtUPRT [3]; [9]) was 1.60±0.04 U mg^−1 and the apparent k cat (MtUPRT [3]; [9]) was 0.59 ± 0.01 s⁻¹. The “k cat/K (true steady-state)” value (MtUPRT [3]) was 4.1 (±0.2)×10^4 M^−1 s^−1, the “true steady-state K (K PRPP, K uracil)” value (MtUPRT [3]) was 14 ± 1 µM and the Kd (MtUPRT [4]) was 5 µM and 48 µM and 6 µM and 9 µM. It also gave a ΔG (MtUPRT [4]; Subunit 1) of -7 ± 1 kcal/mol, a ΔH (MtUPRT [4]; Subunit 1) of 2.8 ± 0.3 kcal/mol and a ΔS (MtUPRT [4]; Subunit 1) of 34±6 cal mol^−1 deg^−1. It also gave a ΔG (MtUPRT [4]; Subunit 2) of -6 ± 2 kcal/mol, a ΔH (MtUPRT [4]; Subunit 2) of -3 ± 16 kcal/mol and a ΔS (MtUPRT [4]; Subunit 2) of 10±3 cal mol^−1 deg^−1. For the same molecule, the ΔG (MtUPRT [4]; Subunit 3) was -7 ± 2 kcal/mol, the ΔH (MtUPRT [4]; Subunit 3) was -41 ± 32 kcal/mol and the ΔS (MtUPRT [4]; Subunit 3) was −114±33 cal mol^−1 deg^−1. It also gave a ΔG (MtUPRT [4]; Subunit 4) of -7 ± 3 kcal/mol, a ΔH (MtUPRT [4]; Subunit 4) of 58 ± 22 kcal/mol and a ΔS (MtUPRT [4]; Subunit 4) of 217±85 cal mol^−1 deg^−1. For the same molecule, the K a (MtUPRT [4]; pH 7.5) was 2.0 (±3.6)×10^5 M^−1 and 2.1 (±0.6)×10^4 M^−1 and 1.6 (±0.5)×10^5 M^−1 and 1.1 (±0.4)×10^5 M^−1.

With `Cc1c[nH]c(=O)[nH]c1=O` [thymine] the “substrate activity (product formation)” value (MtUPRT [5]) was “no product formation could be detected”.

For `O=c1ccn([C@@H]2O[C@H](COP(=O)(O)OP(=O)(O)OP(=O)(O)O)[C@@H](O)[C@H]2O)c(=O)[nH]1` [UTP, uridine 5′-triphosphate], the “activation or inhibition of MtUPRT” value (MtUPRT [2]; 350 µM PRPP, 35 µM uracil) was “not significantly activated or inhibited”.

With `Nc1cc[nH]c(=O)n1` [cytosine] the “substrate activity (product formation)” value (MtUPRT [5]) was “no product formation could be detected”.

In the case of `Nc1ccn([C@@H]2O[C@H](COP(=O)(O)OP(=O)(O)OP(=O)(O)O)[C@@H](O)[C@H]2O)c(=O)n1` [CTP, cytidine 5′-triphosphate], the “effect of CTP on activity” value (S. solfataricus UPRT; in the presence of UMP) is given as “inhibited the enzyme”, the “effect on UMP inhibition of MtUPRT” value (MtUPRT [2]; 500 µM CTP together with 100 µM UMP) is given as “no increase in UMP inhibition occurred” and the “activation or inhibition of MtUPRT” value (MtUPRT [2]; 350 µM PRPP, 35 µM uracil) is given as “not significantly activated or inhibited”.

B1: Uracil phosphoribosyltransferase from Mycobacterium tuberculosis (enzyme)
chain: MQVHVVDHPLAAARLTTLRDERTDNAGFRAALRELTLLLIYEATRDAPCEPVPIRTPLAETVGSRLTKPPLLVPVLRAGLGMVDEAHAALPEAHVGFVGVARDEQTHQPVPYLDSLPDDLTDVPVMVLDPMVATGGSMTHTLGLLISRGAADITVLCVVAAPEGIAALQKAAPNVRLFTAAIDEGLNEVAYIVPGLGDAGDRQFGPR
notes: also called MtUPRT; UPRT
In the case of B1, the Kd (AUC) is reported as ~1 µM and the “stoichiometry N” value (AUC) is reported as 4.
